Reference: ChEMBL document CHEMBL4020745 (Bioorg Med Chem Lett, 2017)
Each block holds one compound with its values, some of them ahead of it.

Assays:
Format in all cases: cell-based
[1] = target: T1, Peroxisome proliferator-activated receptor gamma (Homo sapiens, UniProt P37231); assay: Transrepression activity at human PPARgamma expressed in HEK293 cells assessed as inhibition of TNFalpha induced NF-kappaB promoter activity pretreated for 4 hrs followed by TNFalpha stimulation after 3 hrs by luciferase reporter gene assay
T1 sequence (P37231 whole entry): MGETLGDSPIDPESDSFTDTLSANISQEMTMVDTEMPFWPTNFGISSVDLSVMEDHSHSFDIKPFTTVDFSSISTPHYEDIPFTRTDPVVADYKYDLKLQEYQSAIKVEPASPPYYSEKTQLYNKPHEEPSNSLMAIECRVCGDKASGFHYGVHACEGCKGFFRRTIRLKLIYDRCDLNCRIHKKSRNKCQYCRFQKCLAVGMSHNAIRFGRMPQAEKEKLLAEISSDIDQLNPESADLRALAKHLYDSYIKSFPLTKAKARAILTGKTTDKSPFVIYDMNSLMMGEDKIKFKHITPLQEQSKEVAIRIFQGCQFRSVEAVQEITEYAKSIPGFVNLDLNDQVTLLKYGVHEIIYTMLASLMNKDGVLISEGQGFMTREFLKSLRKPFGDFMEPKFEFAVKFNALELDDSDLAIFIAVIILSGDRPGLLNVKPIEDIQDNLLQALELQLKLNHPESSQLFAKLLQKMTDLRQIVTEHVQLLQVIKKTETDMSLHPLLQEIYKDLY

HEK293 = assay: Cytotoxicity against HEK293 cells harboring beta-galactosidase expression plasmid assessed as effect on beta-galactosidase activity; conditions: human
[2] = target: T1, Peroxisome proliferator-activated receptor gamma; assay: Transactivation activity at Gal4 fused […] human PPARgamma LBD expressed in HEK293 cells after 24 hrs by luciferase reporter gene assay
[3] = Inhibition of TNFalpha induced NF-kappaB (unknown origin) activation expressed in PPARgamma deficient HEK293 cells pretreated for 4 hrs followed by TNFalpha stimulation after 3 hrs by luciferase reporter gene assay; conditions: Homo sapiens

Structure (SMILES): CN(CCOc1ccc(CC2SC(=O)NC2=O)cc1)c1nc2ccccc2s1 (stereo unspecified)
IC50 [1]: 20 µM | Activity (HEK293): Non-Toxic | EC50 [2]: 0.057 µM

Structure (SMILES): CN(CCOc1ccc(/C=C2\SC(=O)NC2=O)cc1)c1nccs1
IC50 [1]: 42 µM | Activity (HEK293): Non-Toxic | EC50 [2]: 0.7 µM

Structure (SMILES): O=C1NC(=O)/C(=C/c2ccc(OCCNc3nc4ccccc4s3)cc2)S1
IC50 [1]: 14 µM | IC50 [3]: 29 µM | Activity (HEK293): Non-Toxic | EC50 [2]: 0.053 µM

Structure (SMILES): CCN(CCOc1ccc(CC2SC(=O)NC2=O)cc1)c1ccccn1 (stereo unspecified)
IC50 [1]: 21 µM | Activity (HEK293): Non-Toxic | EC50 [2]: 0.54 µM

Structure (SMILES): CC(C)N(CCOc1ccc(CC2SC(=O)NC2=O)cc1)c1nc2ccccc2s1 (stereo unspecified)
IC50 [1]: 20 µM | Activity (HEK293): Non-Toxic | EC50 [2]: 0.53 µM

Structure (SMILES): CCc1ccc(CCOc2ccc(CC3SC(=O)NC3=O)cc2)nc1 (stereo unspecified) [PIOGLITAZONE]
Activity (HEK293): Non-Toxic

Structure (SMILES): CN(CCOc1ccc(CC2SC(=O)NC2=O)cc1)c1ccccn1 (stereo unspecified) [ROSIGLITAZONE]
Activity (HEK293): Non-Toxic

More lines, main results first:

IC50 [1]: 40 µM | EC50 [2]: 1.6 µM
Structure (SMILES): CN(CCOc1ccc(/C=C2\SC(=O)NC2=O)cc1)c1ccc2ccccc2c1
Activity (HEK293): Non-Toxic

IC50 [1]: 25 µM | EC50 [2]: 0.052 µM
Structure (SMILES): CCN(CCOc1ccc(CC2SC(=O)NC2=O)cc1)c1nc2ccccc2s1 (stereo unspecified)
Activity (HEK293): Non-Toxic

IC50 [1]: 15 µM | EC50 [2]: 0.36 µM
Structure (SMILES): CCN(CCOc1ccc(/C=C2\SC(=O)NC2=O)cc1)c1ccccn1
Activity (HEK293): Non-Toxic

IC50 [1]: 38 µM | EC50 [2]: 3.4 µM
Structure (SMILES): CN(CCOc1ccc(/C=C2\SC(=O)NC2=O)cc1)c1nc2ccccc2[nH]1
Activity (HEK293): Non-Toxic

IC50 [1]: 17 µM | EC50 [2]: 0.82 µM
Structure (SMILES): CCN(CCOc1ccc(/C=C2\SC(=O)NC2=O)cc1)c1nc2ccccc2s1
Activity (HEK293): Non-Toxic

IC50 [1]: 13 µM | EC50 [2]: 0.31 µM
Structure (SMILES): CN(CCOc1ccc(/C=C2\SC(=O)NC2=O)cc1)c1nc2ccccc2s1
Activity (HEK293): Non-Toxic
